Experimental data as given in patent publication US11964956B2, “Cannabinergic compounds and uses thereof” (Northeastern University, priority 2012, dated 2024).
Like-named read-outs stand apart in the source and are kept apart here.

Tests used:
rCB1 [1] = target: T1, rCB1 (Rattus norvegicus, UniProt P20272); assay: rCB1 competition-equilibrium binding with [3H]CP-55,940, rat brain membranes; set-up: Frozen rat brains (CB1 source) are obtained from Pel-Freeze Biologicals; tissue Pel-Freeze Biologicals (Rogers, AK); host or cells: rat brain membranes
T1 sequence (P20272 whole entry): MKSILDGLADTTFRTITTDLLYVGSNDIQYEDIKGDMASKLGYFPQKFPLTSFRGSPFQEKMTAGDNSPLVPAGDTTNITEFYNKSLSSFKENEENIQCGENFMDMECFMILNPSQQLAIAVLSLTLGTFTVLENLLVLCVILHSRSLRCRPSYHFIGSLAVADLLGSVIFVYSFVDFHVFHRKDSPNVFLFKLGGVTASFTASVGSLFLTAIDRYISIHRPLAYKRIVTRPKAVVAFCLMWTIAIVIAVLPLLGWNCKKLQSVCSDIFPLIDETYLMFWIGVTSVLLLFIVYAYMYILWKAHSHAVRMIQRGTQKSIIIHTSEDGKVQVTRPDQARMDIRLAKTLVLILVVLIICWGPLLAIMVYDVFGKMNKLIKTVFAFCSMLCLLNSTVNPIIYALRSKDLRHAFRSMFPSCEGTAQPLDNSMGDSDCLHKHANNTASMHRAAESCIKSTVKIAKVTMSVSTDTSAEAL
Procedure: Frozen rat brains (CB1 source) are obtained from Pel-Freeze Biologicals (Rogers, AK) and stored at −80° C. until use. Membranes are prepared according to the method described by Dodd et al. and used in our laboratory as reported.
(§1) All the cannabinoids discussed in this invention are tested for their ability to bind to CB 1 and CB2 receptors using membranes from rat brain or HEK293 cells expressing either mCB2 or hCB2, respectively via competition-equilibrium binding using [^3H]CP-55,940. Results are analyzed using nonlinear regression to determine ligand IC50 (Prism by GraphPad Software, Inc.), and Ki values are calculated from the IC50. IC50 and Ki values are determined from at least three independent experiments.
(§2) Some disclosed compounds were tested for CB1 and CB2 receptor binding affinity, which can be represented by a Ki value. The Ki value is the affinity constant and describes the affinity of the compound for the receptor. […] A detailed description of the methods used to test binding affinity of compounds is given in US 2007/0135388 and in Papahatjis, et al., J. Med. Chem. (2007) 4048, the content of each of which is hereby incorporated by reference.

mCB2 = target: T2, mCB2 (Mus musculus, UniProt P47936); assay: mCB2 competition-equilibrium binding with [3H]CP-55,940, HEK293 membranes
T2 construct: expressed in transfected cells; host or cells: HEK293
T2 sequence (P47936 whole entry): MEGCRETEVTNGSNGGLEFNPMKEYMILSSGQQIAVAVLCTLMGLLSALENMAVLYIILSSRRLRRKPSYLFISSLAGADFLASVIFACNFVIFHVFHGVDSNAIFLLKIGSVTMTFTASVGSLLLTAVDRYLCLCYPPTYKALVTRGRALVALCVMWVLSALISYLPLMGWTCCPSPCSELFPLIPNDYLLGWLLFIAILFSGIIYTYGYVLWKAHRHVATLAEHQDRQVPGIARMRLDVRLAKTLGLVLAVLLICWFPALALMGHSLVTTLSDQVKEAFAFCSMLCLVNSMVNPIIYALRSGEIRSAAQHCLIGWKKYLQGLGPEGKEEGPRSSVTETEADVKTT
Procedure: (§3) HEK293 cells expressing hCB1 or hCB2 or mCB2 receptor are used for membrane preparations according to Abadji et al. The resulting pellet is resuspended in 10 mM Tris-chloride, pH 7.4, with 5 mM MgCl2 and 2 mM EDTA (TME), rapidly frozen in liquid nitrogen and stored at −80° C. for no longer than two months. Protein content is assayed by using the Bio-Rad protein assay according to the manufacturer's protocol.
as §1, §2

hCB2 = target: T3, hCB2 (Homo sapiens, UniProt P34972); assay: hCB2 competition-equilibrium binding with [3H]CP-55,940, HEK293 membranes
T3 construct: expressed in transfected cells; host or cells: HEK293
T3 sequence (P34972 whole entry): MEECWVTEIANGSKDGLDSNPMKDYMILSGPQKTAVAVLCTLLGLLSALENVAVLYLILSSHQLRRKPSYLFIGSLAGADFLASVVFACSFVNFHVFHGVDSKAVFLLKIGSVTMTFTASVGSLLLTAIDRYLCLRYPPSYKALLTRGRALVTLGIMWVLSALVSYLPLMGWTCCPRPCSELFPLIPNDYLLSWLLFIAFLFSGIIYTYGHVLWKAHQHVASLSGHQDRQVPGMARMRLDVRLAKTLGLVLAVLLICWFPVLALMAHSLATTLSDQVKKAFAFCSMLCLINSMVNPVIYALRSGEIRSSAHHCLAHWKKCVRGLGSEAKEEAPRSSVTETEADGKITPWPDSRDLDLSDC
Procedure: as §3, §1, §2

rCB1 [2] = target: T1, rCB1; assay: cAMP assay, rCB1; type: cell-based; settings: for Emax: cAMP assay
Procedure: Functional characterization of some of the disclosed compounds was performed by using the cyclic adenosine monophosphate (cAMP) assay. The functional potency of the compound in the cAMP assay is represented by the EC50 value. The lower the EC50 value, the higher the functional potency. A detailed description of the cyclic adenosine monophosphate (cAMP) assay is given in Nikas et al. J. Med. Chem. (2010) 6996, the content of which is incorporated herein by reference. Table 10 lists the EC50 values of certain compounds of Formula (Je) in the cAMP assay.

Structure (SMILES) | Ki (rCB1 [1]) [nM] | Ki (mCB2) [nM] | Ki (hCB2) [nM] | Ki (mCB2; HEK293 cells expressing mCB2, Tables 5-8, read-out: mCB2 Ki) [nM] | Ki (rCB1 [1]; rat brain membranes, Tables 5-8, read-out: rCB1 Ki) [nM] | EC50 (rCB1 [2]) [nM] | Emax (rCB1 [2]) [%]
CCCCOC(=O)C1(c2cc(O)c3c(c2)OC(C)(C)C2CCC(=O)CC32)CCCC1 (centres unmarked) [AM8137] | 0.4 ± 0.01 |  |  |  |  |  | 
CC1(C)Oc2cc(C3(C(=O)O)CCCC3)cc(O)c2C2CC(=O)CCC21 (centres unmarked) [AM8139] | > 1000 | > 1000 | > 1000 |  |  |  | 
CC1=CC[C@H]2[C@@H](C1)c1c(O)cc(C(C)(C)C(=O)OCCCCC#N)cc1OC2(C)C [Compound 1.3, 4-cyanobutyl-2-((6aS, 10aR)-6a, 7, 10, 10a-tetrahydro-1-hydroxy-6,6,9-trimethyl-6H-benzo[c]chromen-3-yl)-2-methylpropanoate] |  |  |  | 0.5 |  |  | 
CC1=CC[C@@H]2[C@@H](C1)c1c(O)cc(C(C)(C)C(=O)OCCCN3CCOCC3)cc1OC2(C)C [Compound 1.25, 3-morpholinopropyl 2-((6aR, 10aR)-1-hydroxy-6,6,9-trimethyl-6a,7, 10, 10a-tetrahydro-6H-benzo[c]chromen-3-yl)-2-methylpropanoate] |  | 104 |  |  |  |  | 
CC(C)(C(=O)OCCCC#N)c1cc(O)c2c(c1)OC(C)(C)[C@@H]1CC=C(CO)C[C@@H]21 [Compound 2.5] | 1 | 1 | 1 |  |  |  | 
CCCCOC(=O)C(C)(C)c1cc(O)c2c(c1)OC(C)(C)[C@@H]1CC[C@H](O)C[C@@H]21 [Compound 3.8, Butyl-2-((6aR,9S, 10aR)-6a,7,8,9, 10, 10a-hexahydro-1,9-dihydroxy-6,6-dimethyl-6H-benzo[c]chromen-3-yl)-2-methylpropanoate] |  | 0.6 |  |  |  |  | 
CCCCCCC(C)(C)c1cc(O)c2c(c1)OC(C)(C)[C@@H]1CCOC(=O)C[C@@H]21 [Compound 3.11, (5aR, 11bR)-11-hydroxy-6,6-dimethyl-9-(2-methyloctan-2-yl)-4,5,5a,6-tetrahydro-1H-oxepino[4,5-c]chromen-2(11bH)-one] |  | 8 |  |  |  |  | 
CCOC(=O)C(C)(C)c1cc(O)c(-c2cccc(C#N)c2)c(O)c1 [Compound 4.2, Ethyl 2-(3′-cyano-2,6-dihydroxybiphenyl-4-yl)-2-methylpropanoate] |  |  |  |  | 3.66 |  | 
CC(C)(C(=O)OCCCI)c1cc(O)c2c(c1)OC(C)(C)[C@@H]1CCC(=O)C[C@@H]21 [Compound 7, 3-Iodopropyl-2-((6aR,10aR)-1-hydroxy-6,6-dimethyl-9-oxo-6a,7,8,9,10,10a-hexahydro-6H-benzo[c]chromen-3-yl)-2-methylpropanoate] | 0.1 ± 0.04 | 1.2 ± 0.6 | 5.3 ± 0.9 |  |  |  | 
CC(C)(C(=O)OCCCN=C=S)c1cc(O)c2c(c1)OC(C)(C)[C@@H]1CCC(=O)C[C@@H]21 [Compound 10, 3-Isothiocyanatopropyl-2-((6aR,10aR)-1-hydroxy-6,6-dimethyl-9-oxo-6a,7,8,9,10,10a-hexahydro-6H-benzo[c]chromen-3-yl)-2-methylpropanoate] | 7.9 | 20 | 22 |  |  | 13.8 | 38
CC(C)(CC(=O)O)c1cc(O)c2c(c1)OC(C)(C)[C@@H]1CCC(=O)C[C@@H]21 [Compound 19, 3-((6aR,10aR)-1-Hydroxy-6,6-dimethyl-9-oxo-6a,7,8,9,10,10a-hexahydro-6H-benzo[c]chromen-3-yl)-3-methylbutanoic acid] | > 1000 | > 1000 | > 1000 |  |  |  | 
COC(=O)CCC(C)(C)c1cc(O)c2c(c1)OC(C)(C)[C@@H]1CCC(=O)C[C@@H]21 [Compound 23, Methyl-4-((6aR,10aR)-1-hydroxy-6,6-dimethyl-9-oxo-6a,7,8,9,10,10a-hexahydro-6H-benzo[c]chromen-3-yl)-4-methylpentanoate] | 270 ± 34.6 | 540 ± 46.7 | 560 ± 64.3 |  |  |  | 
CC(C)(C(=O)O)c1cc(O)c2c(c1)OC(C)(C)[C@@H]1CCC(=O)C[C@@H]21 [Compound 32, 2-[(6aR,10aR)-6a,7,8,9,10,10a-Hexahydro-1-hydroxy-6,6-dimethyl-9-oxo-6H-benzo[c]chromen-3-yl]-2-methylpropanoic acid] | > 1000 | > 1000 | > 1000 |  |  |  | 
CCOC(=O)C(C)(C)c1cc(O)c2c(c1)OC(C)(C)[C@@H]1CCC(=O)C[C@@H]21 [Compound 34a, Ethyl 2-((6aR,10aR)-1-hydroxy-6,6-dimethyl-9-oxo-6a,7,8,9,10,10a-hexahydro-6H-benzo[c]chromen-3-yl)-2-methylpropanoate] | 36.7 ± 5.6 | 89.7 ± 18.1 | 67.5 ± 13.4 |  |  |  | 
CCCOC(=O)C(C)(C)c1cc(O)c2c(c1)OC(C)(C)[C@@H]1CCC(=O)C[C@@H]21 [Compound 34b, Propyl 2-((6aR,10aR)-1-hydroxy-6,6-dimethyl-9-oxo-6a,7,8,9,10,10a-hexahydro-6H-benzo[c]chromen-3-yl)-2-methylpropanoate] | 4.8 ± 0.8 | 32 ± 5.2 | 8.3 ± 3.1 |  |  |  | 
CCCCCCOC(=O)C(C)(C)c1cc(O)c2c(c1)OC(C)(C)[C@@H]1CCC(=O)C[C@@H]21 [Compound 34d, Hexyl 2-((6aR,10aR)-1-hydroxy-6,6-dimethyl-9-oxo-6a,7,8,9,10,10a-hexahydro-6H-benzo[c]chromen-3-yl)-2-methylpropanoate] | 5.9 ± 1.2 | 30 ± 7.3 | 15.1 ± 2.2 |  |  |  | 
CCC[C@H](C)OC(=O)C(C)(C)c1cc(O)c2c(c1)OC(C)(C)[C@@H]1CCC(=O)C[C@@H]21 [Compound 34e, (S)-pentan-2-yl 2-((6aR,10aR)-1-hydroxy-6,6-dimethyl-9-oxo-6a,7,8,9,10,10a-hexahydro-6H-benzo[c]chromen-3-yl)-2-methylpropanoate] | 3 ± 0.5 | 54 ± 10.6 | 12.4 ± 2.5 |  |  | 2.9 | 58
CCC[C@@H](C)OC(=O)C(C)(C)c1cc(O)c2c(c1)OC(C)(C)[C@@H]1CCC(=O)C[C@@H]21 [Compound 34f, (R)-Pentan-2-yl 2-((6aR,10aR)-1-hydroxy-6,6-dimethyl-9-oxo-6a,7,8,9,10,10a-hexahydro-6H-benzo[c]chromen-3-yl)-2-methylpropanoate] | 4 ± 0.7 | 36.4 ± 12.4 | 7 ± 2.1 |  |  | 94.5 | 71
CCCCNC(=O)C(C)(C)c1cc(O)c2c(c1)OC(C)(C)[C@@H]1CCC(=O)C[C@@H]21 [Compound 34i, N-Butyl-2-((6aR,10aR)-1-hydroxy-6,6-dimethyl-9-oxo-6a,7,8,9,10,10a-hexahydro-6H-benzo[c]chromen-3-yl)-2-methylpropanamide] | 115 ± 21.6 | > 1000 | > 1000 |  |  |  | 
CC(C)(C(=O)OCCCCBr)c1cc(O)c2c(c1)OC(C)(C)[C@@H]1CCC(=O)C[C@@H]21 [Compound 36, 4-Bromobutyl 2-((6aR,10aR)-1-hydroxy-6,6-dimethyl-9-oxo-6a,7,8,9,10,10a-hexahydro-6H-benzo[c]chromen-3-yl)-2-methylpropanoate] | 0.002 | 1.8 |  |  |  |  | 
CC(C)(C(=O)OCCCCN=[N+]=[N-])c1cc(O)c2c(c1)OC(C)(C)[C@@H]1CCC(=O)C[C@@H]21 [Compound 37, 4-Azidobutyl 2-((6aR,10aR)-1-hydroxy-6,6-dimethyl-9-oxo-6a,7,8,9,10,10a-hexahydro-6H-benzo[c]chromen-3-yl)-2-methylpropanoate] | 1.7 | 4.5 | 1.7 |  |  |  | 
CC(C)(C(=O)OCCCCN=C=S)c1cc(O)c2c(c1)OC(C)(C)[C@@H]1CCC(=O)C[C@@H]21 [Compound 38, 4-Isothiocyanatobutyl 2-((6aR,10aR)-1-hydroxy-6,6-dimethyl-9-oxo-6a,7,8,9,10,10a-hexahydro-6H-benzo[c]chromen-3-yl)-2-methylpropanoate] | 4.9 | 21.4 | 5.2 |  |  |  | 
CC(C)(C(=O)OCCCCO[N+](=O)[O-])c1cc(O)c2c(c1)OC(C)(C)[C@@H]1CCC(=O)C[C@@H]21 [Compound 39, 4-(Nitrooxy)butyl 2-((6aR,10aR)-1-hydroxy-6,6-dimethyl-9-oxo-6a,7,8,9,10,10a-hexahydro-6H-benzo[c]chromen-3-yl)-2-methylpropanoate] | 0.2 | 2.2 | 2.6 |  |  |  | 
